ChEMBL document CHEMBL3885861, “Open TG-GATES”

Organism: Rattus norvegicus
Assay: Open TG-GATES - Regimen: Daily Repeat
Format: toxicity, organism-based, Sprague-Dawley
Design: regimen Daily Repeat, gender Male, age 6 weeks
Conditions: in vivo, po, 300 mg/kg, route gavage, dose level Middle; for APTT / Bas / Eos / Fbg / Hb / Ht / Lym / MCHC / MCV / Mono / Neu / PT / Plat / RBC / Ret / WBC: tissue Blood; for KIDNEY_L / KIDNEY_R / KIDNEY_TOTAL: tissue Kidney; for LIVER: tissue Liver; for ALP / ALT / AST / BUN / CRE / Ca / Cl / DBIL / GLC / IP / K / LDH / Na / PL / RALB / TBIL / TG / TP / gamma-GTP: tissue Plasma

CN(C)C(=N)N=C(N)N [METFORMIN]
TERMINAL_BW (72 h, time 3 day): 223.9 g
APTT (72 h, time 3 day): 17.6 s
Bas (72 h, time 3 day): 0%
Eos (72 h, time 3 day): 1%
Fbg (72 h, time 3 day): 251.8 mg/dL
Hb (72 h, time 3 day): 13.2 g/dL
Ht (72 h, time 3 day): 39.3%
Lym (72 h, time 3 day): 78.2%
MCHC (72 h, time 3 day): 33.6%
MCV (72 h, time 3 day): 63.4 fL
Mono (72 h, time 3 day): 3.2%
Neu (72 h, time 3 day): 17.2%
PT (72 h, time 3 day): 12.7 s
Plat (72 h, time 3 day): 115.7 x10_4/uL
RBC (72 h, time 3 day): 621.4 x10_4/ul
Ret (72 h, time 3 day): 7.1%
WBC (72 h, time 3 day): 94 x10_2/uL
KIDNEY_L (72 h, time 3 day): 1 g
KIDNEY_R (72 h, time 3 day): 1 g
KIDNEY_TOTAL (72 h, time 3 day): 2 g
LIVER (72 h, time 3 day): 11.3 g
ALP (72 h, time 3 day): 1558.4 IU/L
ALT (72 h, time 3 day): 52.2 IU/L
AST (72 h, time 3 day): 78.4 IU/L
BUN (72 h, time 3 day): 15.8 mg/dL
CRE (72 h, time 3 day): 0.2 mg/dL
Ca (72 h, time 3 day): 11.1 mg/dL
Cl (72 h, time 3 day): 104.8 meq/L
DBIL (72 h, time 3 day): 0.016 mg/dL
GLC (72 h, time 3 day): 193.2 mg/dL
IP (72 h, time 3 day): 8.3 mg/dL
K (72 h, time 3 day): 3.9 meq/L
LDH (72 h, time 3 day): 62.2 IU/L
Na (72 h, time 3 day): 141.6 meq/L
PL (72 h, time 3 day): 140.8 mg/dL
RALB (72 h, time 3 day): 2.6 g/dL
TBIL (72 h, time 3 day): 0.038 mg/dL
TG (72 h, time 3 day): 68.2 mg/dL
TP (72 h, time 3 day): 5.6 g/dL
gamma-GTP (72 h, time 3 day): 1 IU/L
TERMINAL_BW ([…], time 7 day): 256.3 g
TERMINAL_BW ([…], time 14 day): 308.9 g
TERMINAL_BW ([…], time 28 day): 387.2 g
APTT ([…], time 7 day): 16 s
Bas ([…], time 7 day): 0%
Eos ([…], time 7 day): 1%
Fbg ([…], time 7 day): 279.8 mg/dL
Hb ([…], time 7 day): 13.8 g/dL
Ht ([…], time 7 day): 41%
Lym ([…], time 7 day): 77.6%
MCHC ([…], time 7 day): 33.7%
MCV ([…], time 7 day): 62.5 fL
Mono ([…], time 7 day): 3.6%
Neu ([…], time 7 day): 17.4%
PT ([…], time 7 day): 12 s
Plat ([…], time 7 day): 126.1 x10_4/uL
RBC ([…], time 7 day): 656.2 x10_4/ul
Ret ([…], time 7 day): 5.6%
WBC ([…], time 7 day): 77.5 x10_2/uL
APTT ([…], time 14 day): 17.2 s
Bas ([…], time 14 day): 0.2%
Eos ([…], time 14 day): 1.2%
Fbg ([…], time 14 day): 248.8 mg/dL
Hb ([…], time 14 day): 14.3 g/dL
Ht ([…], time 14 day): 41.6%
Lym ([…], time 14 day): 78.6%
MCHC ([…], time 14 day): 34.4%
MCV ([…], time 14 day): 60.4 fL
Mono ([…], time 14 day): 2.6%
Neu ([…], time 14 day): 17%
PT ([…], time 14 day): 12.2 s
Plat ([…], time 14 day): 116.5 x10_4/uL
RBC ([…], time 14 day): 690.4 x10_4/ul
Ret ([…], time 14 day): 4.6%
WBC ([…], time 14 day): 107 x10_2/uL
APTT ([…], time 28 day): 19.8 s
Bas ([…], time 28 day): 0.2%
Eos ([…], time 28 day): 1%
Fbg ([…], time 28 day): 261.8 mg/dL
Hb ([…], time 28 day): 15.3 g/dL
Ht ([…], time 28 day): 44.3%
Lym ([…], time 28 day): 79.4%
MCHC ([…], time 28 day): 34.5%
MCV ([…], time 28 day): 57 fL
Mono ([…], time 28 day): 2.6%
Neu ([…], time 28 day): 16.2%
PT ([…], time 28 day): 12.2 s
Plat ([…], time 28 day): 100.1 x10_4/uL
RBC ([…], time 28 day): 777.2 x10_4/ul
Ret ([…], time 28 day): 2.5%
WBC ([…], time 28 day): 112.9 x10_2/uL
KIDNEY_L ([…], time 7 day): 1 g
KIDNEY_R ([…], time 7 day): 1 g
KIDNEY_TOTAL ([…], time 7 day): 2.1 g
KIDNEY_L ([…], time 14 day): 1.2 g
KIDNEY_R ([…], time 14 day): 1.2 g
KIDNEY_TOTAL ([…], time 14 day): 2.4 g
KIDNEY_L ([…], time 28 day): 1.4 g
KIDNEY_R ([…], time 28 day): 1.4 g
KIDNEY_TOTAL ([…], time 28 day): 2.9 g
LIVER ([…], time 7 day): 12.7 g
LIVER ([…], time 14 day): 14 g
LIVER ([…], time 28 day): 16.4 g
ALP ([…], time 7 day): 1101.6 IU/L
ALT ([…], time 7 day): 61 IU/L
AST ([…], time 7 day): 83.2 IU/L
BUN ([…], time 7 day): 15.6 mg/dL
CRE ([…], time 7 day): 0.2 mg/dL
Ca ([…], time 7 day): 10.8 mg/dL
Cl ([…], time 7 day): 106.2 meq/L
DBIL ([…], time 7 day): 0.014 mg/dL
GLC ([…], time 7 day): 182.8 mg/dL
IP ([…], time 7 day): 8.2 mg/dL
K ([…], time 7 day): 4.6 meq/L
LDH ([…], time 7 day): 102.8 IU/L
Na ([…], time 7 day): 141.8 meq/L
PL ([…], time 7 day): 144.4 mg/dL
RALB ([…], time 7 day): 2.7 g/dL
TBIL ([…], time 7 day): 0.028 mg/dL
TG ([…], time 7 day): 119.6 mg/dL
TP ([…], time 7 day): 5.7 g/dL
gamma-GTP ([…], time 7 day): 0.8 IU/L
ALP ([…], time 14 day): 1291.2 IU/L
ALT ([…], time 14 day): 50.4 IU/L
AST ([…], time 14 day): 73 IU/L
BUN ([…], time 14 day): 16.4 mg/dL
CRE ([…], time 14 day): 0.2 mg/dL
Ca ([…], time 14 day): 10.9 mg/dL
Cl ([…], time 14 day): 104.8 meq/L
DBIL ([…], time 14 day): 0.016 mg/dL
GLC ([…], time 14 day): 190.4 mg/dL
IP ([…], time 14 day): 7.1 mg/dL
K ([…], time 14 day): 3.8 meq/L
LDH ([…], time 14 day): 72.2 IU/L
Na ([…], time 14 day): 142.4 meq/L
PL ([…], time 14 day): 157.6 mg/dL
RALB ([…], time 14 day): 2.7 g/dL
TBIL ([…], time 14 day): 0.032 mg/dL
TG ([…], time 14 day): 134.4 mg/dL
TP ([…], time 14 day): 5.9 g/dL
gamma-GTP ([…], time 14 day): 1 IU/L
ALP ([…], time 28 day): 1096.8 IU/L
ALT ([…], time 28 day): 47.2 IU/L
AST ([…], time 28 day): 68.8 IU/L
BUN ([…], time 28 day): 15.6 mg/dL
CRE ([…], time 28 day): 0.2 mg/dL
Ca ([…], time 28 day): 11.1 mg/dL
Cl ([…], time 28 day): 105.6 meq/L
DBIL ([…], time 28 day): 0.016 mg/dL
GLC ([…], time 28 day): 187.6 mg/dL
IP ([…], time 28 day): 6.8 mg/dL
K ([…], time 28 day): 3.8 meq/L
LDH ([…], time 28 day): 52 IU/L
Na ([…], time 28 day): 145.4 meq/L
PL ([…], time 28 day): 150.4 mg/dL
RALB ([…], time 28 day): 2.8 g/dL
TBIL ([…], time 28 day): 0.036 mg/dL
TG ([…], time 28 day): 158.2 mg/dL
TP ([…], time 28 day): 6.2 g/dL
gamma-GTP ([…], time 28 day): 1 IU/L
